The values below come from patent US20260028354A1, “TETRAHYDRONAPHTHALENE DERIVATIVES AS ESTROGEN RECEPTOR DEGRADERS” (REGENT OF THE UNIVERSITY OF MICHIGAN, priority 2022, published 2026).

Structures are written as SMILES. Where two headings read alike, the source gives them in different places.

One assay addresses ER in MCF-7 cells (Homo sapiens (Human), UniProt P03372). The assay can be described thus: In-cell Western (ICW) ER degradation assay in MCF-7 cells. Format: cell-based. The conditions noted are these: for DC50: MCF-7, ER degradation, read-out: MCF7 DC50.
The test system of another assay is MCF-7 cells. The assay can be described thus: CellTiter-Glo (CTG) cell proliferation assay in MCF-7 cells. Format: cell-based. The conditions noted are these: Homo sapiens, MCF7, 144 h, MCF-7 cell proliferation, Day 6. The source says: CellTiter-Glo® (CTG) Assays in MCF-7 and T47D Cell Lines.
In vitro Assay: MCF-7 and T47D CTG assay
On the technique in general: ATP-based viability assays read luminescence as a measure of living cells.

Chain of ER in MCF-7 cells (P03372 whole entry): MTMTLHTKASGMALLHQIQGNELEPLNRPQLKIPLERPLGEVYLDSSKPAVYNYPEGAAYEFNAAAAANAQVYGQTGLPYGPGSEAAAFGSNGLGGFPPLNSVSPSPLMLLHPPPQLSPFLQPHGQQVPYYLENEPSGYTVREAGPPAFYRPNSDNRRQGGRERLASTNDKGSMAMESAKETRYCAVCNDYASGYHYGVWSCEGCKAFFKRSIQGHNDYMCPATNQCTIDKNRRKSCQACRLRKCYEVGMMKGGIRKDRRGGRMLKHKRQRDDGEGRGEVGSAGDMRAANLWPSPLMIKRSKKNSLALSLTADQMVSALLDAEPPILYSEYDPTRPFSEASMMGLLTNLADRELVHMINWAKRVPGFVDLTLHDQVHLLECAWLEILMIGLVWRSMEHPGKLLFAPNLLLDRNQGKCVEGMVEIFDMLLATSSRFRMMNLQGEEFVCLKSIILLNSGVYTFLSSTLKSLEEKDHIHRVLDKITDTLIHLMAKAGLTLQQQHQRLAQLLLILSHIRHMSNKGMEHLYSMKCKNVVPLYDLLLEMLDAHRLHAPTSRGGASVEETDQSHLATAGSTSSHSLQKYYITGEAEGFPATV

On to `O=C1CC[C@H](N2Cc3c(ccc4c3OCC43CCN(CC4CCC5(CC4)CN(c4ccc([C@@H]6c7ccc(O)cc7CC[C@@H]6c6ccccc6)cc4)C5)CC3)C2=O)C(=O)N1` [Compound A177, (S)-3-(1′-((2-(4-((1R,2S)-6-hydroxy-2-phenyl-1,2,3,4-tetra-hydronaphthalen-1-yl)phenyl)-2-azaspiro[3.5]nonan-7-yl)-methyl)-6-oxo-6,8-dihydro-2H,7H-spiro[furo[2,3-e]iso-indole-3,4′-piperidin]-7-yl)-piperidine-2,6-dione], for which the Dmax (in general, the greatest extent of degradation seen) on ER in MCF-7 cells (MCF7, read-out: MCF7 Dmax, MCF-7, maximal ER degradation, 16 hrs treatment) was over 75%. Also, the DC50 (commonly the midpoint of the concentration-degradation curve) at ER in MCF-7 cells (16 hrs treatment) was under 1 nM. In addition, the IC50 (in general, the midpoint of a concentration-inhibition curve) in the assay with MCF-7 cells was over 100 nM.
As to `COc1cc(N2CC3(CC(CN4CCN5c6ccc7c(c6OC[C@H]5C4)CN([C@H]4CCC(=O)NC4=O)C7=O)C3)C2)c(F)cc1[C@@H]1c2ccc(O)cc2CC[C@@H]1c1ccccc1` [Compound A185, (S)-3-((R)-7-((2-(2-fluoro-4-((1S,2S)-6-hydroxy-2-phenyl-1,2,3,4-tetrahydronaphthalen-1-yl)-5-methoxyphenyl)-2-aza-spiro[3.3]heptan-6-yl)methyl)-1-oxo-1,3,5,5a,6,7,8,9-octa-hydro-2H-pyrazino[1′,2′:4,5] [1,4]oxazino[2,3-e]isoindol-2-yl)piperidine-2,6-dione], at ER in MCF-7 cells (MCF7, MCF-7, maximal ER degradation, 16 hrs treatment, read-out: MCF7 Dmax), the Dmax is over 75%. In addition, the DC50 on ER in MCF-7 cells (16 hrs treatment) is under 1 nM. The compound also had an IC50 with MCF-7 cells of over 100 nM.
As for `COc1cc(N2CCC(CCN3CCN4c5cc(Cl)c6c(c5OC[C@H]4C3)CN([C@H]3CCC(=O)NC3=O)C6=O)CC2)c(F)cc1[C@@H]1c2ccc(O)cc2CC[C@@H]1c1ccccc1` [Compound A224, (S)-3-((R)-12-chloro-7-(2-(1-(2-fluoro-4-((1S,2S)-6-hydroxy-2-phenyl-1,2,3,4-tetrahydronaphthalen-1-yl)-5-methoxyphenyl)piperidin-4-yl)ethyl)-1-oxo-1,3,5,5a,6,7,8,9-octahydro-2H-pyrazino[1′,2′: 4,5][1,4]oxazino[2,3-e]isoindol-2-yl)piperidine-2,6-dione], in the assay with MCF-7 cells, the IC50 was 10 to 100 nM.
Same read-out and setting: with `COc1cc(N2CCC(CCN3CCC4(CC3)COc3c4cc4c(c3Cl)C(=O)N([C@H]3CCC(=O)NC3=O)C4)CC2)c(F)cc1[C@@H]1c2ccc(O)cc2CC[C@@H]1c1ccccc1` [Compound A217, (S)-3-(8-chloro-1′-(2-(1-(2-fluoro-4-((1S,2S)-6-hydroxy-2-phenyl-1,2,3,4-tetrahydronaph-thalen-1-yl)-5-methoxyphenyl)-piperidin-4-yl)ethyl)-7-oxo-5,7-dihydro-2H,6H-spiro[furo[2,3-f]isoindole-3,4′-piperidin]-6-yl)piperidine-2,6-dione] the figure was under 10 nM; with `Cc1cc2c(c3c1C(=O)N([C@H]1CCC(=O)NC1=O)C3)OCC21CCN(CC2CC3(CCN(c4ccc([C@@H]5c6ccc(O)cc6CC[C@@H]5c5ccccc5)cc4)CC3)C2)CC1` [Compound A214, (S)-3-(1′-((7-(4-((1R,2S)-6-hydroxy-2-phenyl-1,2,3,4-tetra-hydronaphthalen-1-yl)phenyl)-7-azaspiro[3.5]nonan-2-yl)-methyl)-5-methyl-6-oxo-6,8-dihydro-2H,7H-spiro[furo[2,3-c]isoindolc-3,4′-pipcridin]-7-yl)piperidine-2,6-dione], under 10 nM; with `COc1cc(N2CCC3(CC2)C[C@H](CN2CCC4(CC2)COc2c4cc(C)c4c2CN([C@H]2CCC(=O)NC2=O)C4=O)CO3)c(F)cc1[C@@H]1c2ccc(O)cc2CC[C@@H]1c1ccccc1` [Compound A208, (3S)-3-[1′-[[(3R)-8-[2-fluoro-4-[(1S,2S)-6-hydroxy-2-phenyl-tetralin-1-yl]-5-methoxy-phenyl]-1-oxa-8-azaspiro[4.5]decan-3-yl]methyl]-5-methyl-6-oxo-spiro[2,8-dihydrofuro[2,3-e]isoindole-3,4′-piperidine]-7-yl]piperidine-2,6-dione], 10 to 100 nM.
Same read-out and setting: with `COc1cc(N2CCC3(CC2)CC(CN2CCC4(CC2)COc2c4cc4c(c2C)C(=O)N([C@H]2CCC(=O)NC2=O)C4)C3)c(F)cc1[C@@H]1c2ccc(O)cc2CC[C@@H]1c1ccccc1` [Compound A220, (S)-3-(1′-((7-(2-fluoro-4-((1S,2S)-6-hydroxy-2-phenyl-1,2,3,4-tetrahydronaphthalen-1-yl)-5-methoxyphenyl)-7-aza-spiro[3.5]nonan-2-yl)methyl)-8-methyl-7-oxo-5,7-dihydro-2H,6H-spiro[furo[2,3-f]iso-indole-3,4′-piperidin]-6-yl)-piperidine-2,6-dione] the figure was under 10 nM.
Still for that read-out and setting: with `COc1cc(N2CCC(CCN3CCC4(CC3)COc3c4cc(OC)c4c3CN([C@@H]3CCC(=O)NC3=O)C4=O)CC2)c(F)cc1[C@@H]1c2ccc(O)cc2CC[C@@H]1c1ccccc1` [Compound A225, (R)-3-(1′-(2-(1-(2-fluoro-4-((1S,2S)-6-hydroxy-2-phenyl-1,2,3,4-tetrahydronaphthalen-1-yl)-5-methoxyphenyl)piperidin-4-yl)ethyl)-5-methoxy-6-oxo-6,8-dihydro-2H,7H-spiro[furo[2,3-e]isoindole-3,4′-piperidin]-7-yl)piperidine-2,6-dione] the figure was under 10 nM; with `COc1cc(N2CCC3(CC2)CC(CN2CCC4(CC2)COc2c4cc4c(c2C)C(=O)N([C@@H]2CCC(=O)NC2=O)C4)C3)c(F)cc1[C@@H]1c2ccc(O)cc2CC[C@@H]1c1ccccc1` [Compound A219, (R)-3-(1′-((7-(2-fluoro-4-((1S, 2S)-6-hydroxy-2-phenyl-1,2,3,4-tetrahydronaphthalen-1-yl)-5-methoxyphenyl)-7-aza-spiro[3.5]nonan-2-yl)methyl)-8-methyl-7-oxo-5,7-dihydro-2H,6H-spiro[furo[2,3-f]iso-indole-3,4′-piperidin]-6-yl)-piperidine-2,6-dione], under 10 nM.
In turn, `Cc1cc2c(c3c1C(=O)N([C@H]1CCC(=O)NC1=O)C3)OCC21CCN(C[C@@H]2CCC3(CCN(c4ccc([C@@H]5c6ccc(O)cc6CC[C@@H]5c5ccccc5)cc4)CC3)OC2)CC1` [Compound A209, (S)-3-(1′-(((S)-9-(4-((1R,2S)-6-hydroxy-2-phenyl-1,2,3,4-tetrahydronaphthalen-1-yl)phenyl)-1-oxa-9-azaspiro[5.5]undecan-3-yl)methyl)-5-methyl-6-oxo-6,8-dihydro-2H,7H-spiro[furo[2,3-e]isoindole-3,4′-piperidin]-7-yl)piperidine-2,6-dione] registered an IC50 in the assay with MCF-7 cells of under 10 nM.
Still for that read-out and setting: the value for `COc1cc(N2CCC3(CC2)CC(CN2CCN4c5cc(C)c6c(c5OC[C@H]4C2)CN([C@H]2CCC(=O)NC2=O)C6=O)C3)c(F)cc1[C@@H]1c2ccc(O)cc2CC[C@@H]1c1ccccc1` [Compound A228, (S)-3-((R)-7-((7-(2-fluoro-4-((1S,2S)-6-hydroxy-2-phenyl-1,2,3,4-tetrahydronaphthalen-1-yl)-5-methoxyphenyl)-7-aza-spiro[3.5]nonan-2-yl)methyl)-12-methyl-1-oxo-1,3,5,5a,6,7,8,9-octahydro-2H-pyrazino [1′,2′:4,5][1,4]oxazino[2,3-e]isoindol-2-yl)piperidine-2,6-dione] was 10 to 100 nM.
